Legend:
CYP3A [1] = conditions: male, human, in vivo
Protocol: The subject was not receiving any medication. […] Urine samples were obtained at a timed period (0-2, 2-4, 4-6, 6-8, 8-10, and 10-12) and the volume of the urine samples was noted. The recommended frequency of blood sampling is at least one time during a 2-hour urine collection. Urinary concentrations of cortisol and 6β-hydroxycortisol and plasma concentrations of cortisol were determined by HPLC and GC-MS, respectively. “The endogenous metabolic clearance (CLm(6β)-endo)” was calculated by Equation 4.
c) The fractional metabolic clearance for the 6β-hydroxylation of endogenous cortisol (CLm(6β)) is expressed as the amount of urinary excreted 6β-hydroxycortisol (X(6β)) divided by the area under the concentration-time curve of cortisol (AUC(F)); that is, CLm(6β)=X(6β)/AUC(F).

CYP3A [2] = conditions: pretreatment with 500-mg of clarithromycin twice a day for 7 days; cited from earlier work

variation of CLm(6β)-endo values during treatment (CYP3A [1]): 1.2 fold
SMILES: CC[C@H]1OC(=O)[C@H](C)[C@@H](O[C@H]2C[C@@](C)(OC)[C@@H](O)[C@H](C)O2)[C@H](C)[C@@H](O[C@@H]2O[C@H](C)C[C@H](N(C)C)[C@H]2O)[C@](C)(OC)C[C@@H](C)C(=O)[C@H](C)[C@@H](O)[C@]1(C)O [clarithromycin]
midazolam sleep time (CYP3A [2]): doubling
reduction in the systemic clearance of midazolam (CYP3A [2]): 64%
